Like-named read-outs stand apart in the source and are kept apart here. Marks after values point to notes of the source that are not given here.
Test: logP by HPLC on reversed-phase columns (C 18), EEC directive 79/831 Annex V.A8
Type: physicochemical
Settings: for chromatographic logP: reversed-phase HPLC column (C 18)
Experimental: Calibration was carried out using unbranched alkan-2-ones (having from 3 to 16 carbon atoms) with known logP values (the logP values were determined by the retention times using linear interpolation between two successive alkanones).

[1] = LC-MS, acidic range, pH 2.7, 0.1% aqueous formic acid and acetonitrile
[2] = LC-MS, neutral range, pH 7.8, 0.001 molar aqueous ammonium bicarbonate and acetonitrile
[3] = acidic range, pH 2.3, 0.1% aqueous phosphoric acid and acetonitrile

| SMILES | log P (**) [1] | log P (***) [2] | log P (*) [3] | chromatographic logP (LC-MS, acidic range, pH 2.7, 0.1% aqueous formic acid and acetonitrile, read-out: log P (**)) | chromatographic logP (LC-MS, neutral range, pH 7.8, 0.001 molar aqueous ammonium bicarbonate and acetonitrile, read-out: log P (***)) | chromatographic logP (acidic range, pH 2.3, 0.1% aqueous phosphoric acid and acetonitrile, read-out: log P (*)) |
| --- | --- | --- | --- | --- | --- | --- |
| Cc1ccc(Oc2ccccc2-c2csc(N=C3CCCCN3)n2)c(C)c1 [compound 1, 4-[2-(2,4-dimethylphenoxy)phenyl]-N-[(2E/Z)-piperidin-2-ylidene]-1,3-thiazole-2-amine] | 2.66 | 4.9 |  |  |  |  |
| Clc1ccc(-c2csc(N=C3CCCCN3)n2)cc1 [compound 2, 4-(4-chlorophenyl)-N-[(2E/Z)-piperidin-2-ylidene]-1,3-thiazole-2-amine] | 1.7** |  |  |  |  |  |
| Brc1ccc(-c2csc(N=C3CCCCN3)n2)cc1 [compound 3, 4-(4-bromophenyl)-N-[(2E/Z)-piperidin-2-ylidene]-1,3-thiazole-2-amine] | 1.67** |  |  |  |  |  |
| Clc1ccc(-c2csc(N=C3CCCCN3)n2)c(Cl)c1 [compound 4, 4-(2,4-dichlorophenyl)-N-[(2E/Z)-piperidin-2-ylidene]-1,3-thiazole-2-amine] | 1.8** |  |  |  |  |  |
| c1ccc(Oc2ccc(-c3csc(N=C4CCCCN4)n3)cc2)cc1 [compound 5, 4-(4-phenoxyphenyl)-N-[(2E/Z)-piperidin-2-ylidene]-1,3-thiazole-2-amine] | 2.17 | 3.97 |  |  |  |  |
| FC(F)(F)c1cc(-c2csc(N=C3CCCCN3)n2)cc(C(F)(F)F)c1 [compound 6, 4-[3,5-bis(trifluoromethyl)phenyl]-N-[(2E/Z)-piperidin-2-ylidene]-1,3-thiazole-2-amine] | 2.23 | 4.36 |  |  |  |  |
| Fc1ccc(Oc2ccccc2-c2csc(N=C3CCCCN3)n2)c(F)c1 [compound 7, 4-[2-(2,4-difluorophenoxy)phenyl]-N-[(2E/Z)-piperidin-2-ylidene]-1,3-thiazole-2-amine] | 2.11 | 3.9 | 2.11 |  |  |  |
| FC(F)(F)c1cccc(-c2csc(N=C3CCCCN3)n2)c1Cl [compound 8, 4-[2-chloro-3-(trifluoromethyl)phenyl]-N-[(2E/Z)-piperidin-2-yl-idene]-1,3-thiazole-2-amine] | 1.94 | 3.72 |  |  |  |  |
| Fc1ccc(Oc2ccc(-c3csc(N=C4CCCCN4)n3)cc2)c(F)c1 [compound 9, 4-[4-(2,4-difluorophenoxy)phenyl]-N-[(2E/Z)-piperidin-2-ylidene]-1,3-thiazole-2-amine] |  | 3.95 | 2.12 |  |  |  |
| c1ccc(Oc2ccccc2-c2csc(N=C3CCCCN3)n2)cc1 [compound 10, 4-(2-phenoxyphenyl)-N-[(2E/Z)-piperidin-2-ylidene]-1,3-thiazole-2-amine] | 2.09 | 3.91 | 2.07 |  |  |  |
| Clc1ccc(Oc2ccccc2-c2csc(N=C3CCCCN3)n2)c(Cl)c1 [compound 11, 4-[2-(2,4-dichlorophenoxy)phenyl]N-[(2E/Z)-piperidin-2-ylidene]-1,3-thiazole-2-amine] | 2.42 | 4.84 | 2.42 |  |  |  |
| CC(C)(C)c1cc(Oc2ccccc2-c2csc(N=C3CCCCN3)n2)ccc1Cl [compound 12, 4-[2-(3-tert-butyl-4-chlorophenoxy)phenyl]-N-[(2E/Z)-piperidin-2-ylidene]-1,3-thiazole-2-amine] | 2.92 | 5.96 | 2.92 |  |  |  |
| FC(F)(F)c1cc(Oc2ccccc2-c2csc(N=C3CCCCN3)n2)ccc1Cl [compound 14, 4-{2-[4-chloro-3-(trifluoromethyl)phenoxy]phenyl}-N-[(2E/Z)-piperidin-2-ylidene]-1,3-thiazole-2-amine] | 2.58 | 4.9 | 2.58 |  |  |  |
| FC(F)(F)Oc1ccccc1-c1csc(N=C2CCCCN2)n1 [compound 15, N-[(2E/Z)-piperidin-2-ylidene]-4-[2-(trifluoromethoxy)phenyl]-1,3-thiazole-2-amine] | 1.77 | 3.54 | 1.77 |  |  |  |
| CC(=O)N1CCCCC1=Nc1nc(-c2ccccc2Oc2ccc(F)cc2F)cs1 [compound 16, 1-[(2E/Z)-2-({4-[2-(2,4-difluorophenoxy)phenyl]-1,3-thiazol-2-yl}imino)piperidin-1-yl]ethanone] | 4.36 | 4.32 | 4.36 |  |  |  |
| CC(=O)N1CCCCC1=Nc1nc(-c2ccccc2Oc2ccccc2)cs1 [compound 17, 1-[(2E/Z)-2-{[4-(2-phenoxyphenyl)-1,3-thiazol-2-yl]imino}piperidin-1-yl]ethanone] | 4.41 | 4.39 | 4.41 |  |  |  |
| Fc1ccc(-c2csc(N=C3CCCCN3)n2)cc1F [compound 18, 4-(3,4-difluorophenyl)-N-[(2E/Z)-piperidin-2-ylidene]-1,3-thiazole-2-amine] | 1.64 | 3.12 | 1.64 |  |  |  |
| Fc1ccc(F)c(-c2csc(N=C3CCCCN3)n2)c1 [compound 19, 4-(2,5-difluorophenyl)-N-[(2E/Z)-piperidin-2-ylidene]-1,3-thiazole-2-amine] | 1.58 | 3.16 | 1.58 |  |  |  |
| Clc1ccccc1-c1csc(N=C2CCCCN2)n1 [compound 20, 4-(2-chlorophenyl)-N-[(2E/Z)-piperidin-2-ylidene]-1,3-thiazole-2-amine] | 1.63 | 3.19 | 1.63 |  |  |  |
| FC(F)(F)c1ccccc1-c1csc(N=C2CCCCN2)n1 [compound 21, N-[(2E/Z)-piperidin-2-ylidene]-4-[2-(trifluoromethyl)phenyl]-1,3-thiazole-2-amine] | 1.76 | 3.25 | 1.76 |  |  |  |
| C=CCOc1ccccc1-c1csc(N=C2CCCCN2)n1 [compound 22, N-[(2E/Z)-piperidin-2-ylidene]-4-[2-(prop-2-en-1-yloxy)phenyl]-1,3-thiazole-2-amine] | 1.83 | 3.45 | 1.83 |  |  |  |

Now from value to compound:

| log P (**) [1] | log P (***) [2] | log P (*) [3] | chromatographic logP (LC-MS, acidic range, pH 2.7, 0.1% aqueous formic acid and acetonitrile, read-out: log P (**)) | chromatographic logP (LC-MS, neutral range, pH 7.8, 0.001 molar aqueous ammonium bicarbonate and acetonitrile, read-out: log P (***)) | chromatographic logP (acidic range, pH 2.3, 0.1% aqueous phosphoric acid and acetonitrile, read-out: log P (*)) | SMILES |
| --- | --- | --- | --- | --- | --- | --- |
| 1.77 | 3.35 | 1.77 |  |  |  | CCOc1ccccc1-c1csc(N=C2CCCCN2)n1 [compound 23, 4-(2-ethoxyphenyl)-N-[(2E/Z)-piperidin-2-ylidene]-1,3-thiazole-2-amine] |
| 1.81 | 3.72 | 1.81 |  |  |  | Clc1cccc(-c2csc(N=C3CCCCN3)n2)c1Cl [compound 24, 4-(2,3-dichlorophenyl)-N-[(2E/Z)-piperidin-2-ylidene]-1,3-thiazole-2-amine] |
| 1.58 | 3.21 | 1.58 |  |  |  | Fc1cccc(-c2csc(N=C3CCCCN3)n2)c1F [compound 25, 4-(2,3-difluorophenyl)-N-[(2E/Z)-piperidin-2-ylidene]-1,3-thiazole-2-amine] |
| 1.84 | 3.78 | 1.84 |  |  |  | Fc1c(-c2csc(N=C3CCCCN3)n2)cccc1C(F)(F)F [compound 26, 4-[2-fluoro-3-(trifluoromethyl)phenyl]-N-[(2E/Z)-piperidin-2-ylidene]-1,3-thiazole-2-amine] |
| 1.35 | 2.36 | 1.35 |  |  |  | COc1ccc(-c2csc(N=C3CCCCN3)n2)cc1OC [compound 27, 4-(3,4-dimethoxyphenyl)-N-[(2E/Z)-piperidin-2-ylidene]-1,3-thiazole-2-amine] |
| 1.41 | 2.65 | 1.41 |  |  |  | c1cc2c(cc1-c1csc(N=C3CCCCN3)n1)OCO2 [compound 28, 4-(1,3-benzodioxol-5-yl)-N-[(2E/Z)-piperidin-2-ylidene]-1,3-thiazole-2-amine] |
| 1.57 | 3.22 | 1.57 |  |  |  | Fc1cc(F)cc(-c2csc(N=C3CCCCN3)n2)c1 [compound 29, 4-(3,5-difluorophenyl)-N-[(2E/Z)-piperidin-2-ylidene]-1,3-thiazole-2-amine] |
| 1.76 | 3.45 | 1.76 |  |  |  | Fc1ccc(-c2csc(N=C3CCCCN3)n2)cc1Cl [compound 30, 4-(3-chloro-4-fluorophenyl)-N-[(2E/Z)-piperidin-2-ylidene]-1,3-thiazole-2-amine] |
| 1.84 | 3.72 | 1.84 |  |  |  | Cc1sc(N=C2CCCCN2)nc1-c1ccc(Cl)cc1 [compound 31, 4-(4-chlorophenyl)-5-methyl-N-[(2E/Z)-piperidin-2-ylidene]-1,3-thiazole-2-amine] |
| 2.2 | 4.35 | 2.2 |  |  |  | CC(C)(C)c1ccc(-c2csc(N=C3CCCCN3)n2)cc1 [compound 32, 4-(4-tert-butylphenyl)-N-[(2E/Z)-piperidin-2-ylidene]-1,3-thiazole-2-amine] |
| 2.71 | 5.03 | 2.71 |  |  |  | CCOc1ccccc1-c1csc(N=C2CCCCN2C(C)=O)n1 [compound 33, 1-[(2E/Z)-2-{[4-(2-ethoxyphenyl)-1,3-thiazol-2-yl]imino}piperidin-1-yl]ethanone] |
| 3.78**; 3.78***; 3.78* | 3.78**; 3.78***; 3.78* | 3.78**; 3.78***; 3.78* |  |  |  | CC(=O)N1CCCCC1=Nc1nc(-c2ccc(Cl)cc2)cs1 [compound 34, 1-[(2E/Z)-2-{[4-(4-chlorophenyl)-1,3-thiazol-2-yl]imino}piperidin-1-yl]ethanone] |
|  |  |  | 4.33 | 4.33 | 4.33 | CC(=O)N1CCCCC1=Nc1nc(-c2ccc(Cl)cc2Cl)cs1 [compound 35, 1-[(2E/Z)-2-{[4-(2,4-dichlorophenyl)-1,3-thiazol-2-yl]imino}piperidin-1-yl]ethanone] |
